Source: ChEMBL document CHEMBL1126308, “Alfred Burger Award address. A half century in medicinal chemistry with major emphasis on pain-relieving drugs and their antagonists” (1992)
Active and inactive are the calls of the source. The calls are words filed in the database; no cut-off is given here.

Tests used:
Mus musculus [1] = organism: Mus musculus; assay: Ratio between the ED50 values in presence and absence of sodium; value ranges from 4-5; type: functional
Mus musculus [2] = organism: Mus musculus; assay: Compound was evaluated for the hotplate analgesic activity in mouse; type: functional; set-up: unit not given here
Mus musculus [3] = organism: Mus musculus; assay: Compound was evaluated for the inhibition of [3H]naloxone binding to mouse brain homogenate at 1 nM in the presence of 100 mM sodium; ED50 = 800-1000 nM; type: functional
Mus musculus [4] = organism: Mus musculus; assay: (§1) Compound was evaluated for the inhibition of [3H]naloxone binding to mouse brain homogenate at 1 nM in the absence of sodium; type: functional
Mus musculus [5] = organism: Mus musculus; assay: Ratio between the ED50 values in presence and absence of sodium; value ranges from 1.2-1.5; type: functional
[6] = target: Mu-type opioid receptor (Mus musculus) (UniProt P42866); assay: Compound was evaluated for the inhibition of [3H]naloxone binding to opioid receptor mu of mouse brain homogenate at 1 nM in the presence of 100 mM sodium; ED50=600-700 nM; type: tissue-based
Chain of Mu-type opioid receptor (Mus musculus) (P42866 whole entry): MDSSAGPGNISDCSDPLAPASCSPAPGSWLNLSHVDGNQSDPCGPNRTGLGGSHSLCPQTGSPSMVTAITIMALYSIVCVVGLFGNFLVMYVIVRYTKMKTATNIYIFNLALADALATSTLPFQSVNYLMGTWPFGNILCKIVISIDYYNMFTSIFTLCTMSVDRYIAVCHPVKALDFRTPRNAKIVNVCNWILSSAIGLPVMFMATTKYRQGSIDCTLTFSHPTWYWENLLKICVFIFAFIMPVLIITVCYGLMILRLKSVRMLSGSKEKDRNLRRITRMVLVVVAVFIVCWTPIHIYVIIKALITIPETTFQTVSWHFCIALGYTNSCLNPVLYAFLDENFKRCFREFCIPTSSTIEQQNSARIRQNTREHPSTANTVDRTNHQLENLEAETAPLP

[7] = target: Mu-type opioid receptor (Mus musculus) (UniProt P42866); assay: as §1; type: tissue-based
Mus musculus [8] = organism: Mus musculus; assay: Compound was evaluated for the hotplate analgesic activity; IA=inactive; type: functional, organism-based
Monkey [9] = assay: Antagonistic potency of the compound; not active; type: functional, organism-based; conditions: Cercopithecidae
Monkey [10] = assay: Physical dependence capacity (PDC) of the compound; no physical dependence capacity; type: functional, organism-based; conditions: Cercopithecidae
Monkey [11] = assay: Physical dependence capacity (PDC) of the compound; low physical dependence capacity; type: functional, organism-based; conditions: Cercopithecidae
Monkey [12] = assay: Physical dependence capacity (PDC) of the compound; high physical dependence capacity; type: functional, organism-based; conditions: Cercopithecidae
Monkey [13] = assay: aAntagonistic potency of the compound; not active; type: functional, organism-based; conditions: Cercopithecidae
Monkey [14] = assay: Analgesic activity in monkeys.; type: functional, Cercopithecidae
Mus musculus [15] = organism: Mus musculus; assay: (§2) Compound was evaluated for the inhibition of [3H]naloxone binding to mouse brain homogenate at 1 nM in the presence of 100 mM sodium; type: functional
Mus musculus [16] = organism: Mus musculus; assay: Ratio between the ED50 values in presence and absence of sodium; type: functional
Monkey [17] = assay: Physical dependence capacity (PDC) of the compound; very low physical dependence capacity; type: functional, organism-based; conditions: Cercopithecidae
[18] = target: Mu-type opioid receptor (Mus musculus) (UniProt P42866); assay: Compound was evaluated for the inhibition of [3H]naloxone binding to opioid receptor mu of mouse brain homogenate at 1 nM in the absence of sodium; type: tissue-based
Mus musculus [19] = organism: Mus musculus; assay: Ratio between the ED50 values in presence and absence of sodium; value ranges from 2-2.5; type: functional
[20] = target: Mu-type opioid receptor (Mus musculus) (UniProt P42866); assay: Compound was evaluated for the inhibition of [3H]naloxone binding to opioid receptor mu mouse brain homogenate at 1 nM in the presence of 100 mM sodium; ED50 = 40-50 nM; type: tissue-based
Mus musculus [21] = organism: Mus musculus; assay: Compound was evaluated for the hotplate analgesic activity; type: functional
Mus musculus [22] = organism: Mus musculus; assay: Ratio between the ED50 values in presence and absence of sodium; value ranges from […]; type: functional
Mus musculus [23] = organism: Mus musculus; assay: Compound was evaluated for the inhibition of [3H]naloxone binding to mouse brain homogenate at 1 nM in the presence of 100 mM sodium; ED50 = […] nM; type: functional
Monkey [24] = assay: Physical dependence capacity (PDC) of the compound; intermed physical dependence capacity; type: functional, organism-based; conditions: Cercopithecidae
[25] = target: Mu-type opioid receptor (Mus musculus) (UniProt P42866); assay: Compound was evaluated for the inhibition of [3H]-naloxone binding to mouse brain homogenate at 1 nM in the presence of 100 mM sodium; type: tissue-based
[26] = target: Mu-type opioid receptor (Rattus norvegicus) (UniProt P33535); assay: Ratio between the ED50 values in presence and absence of sodium; value ranges from 3.8-5; type: functional; conditions: Mus musculus
Chain of Mu-type opioid receptor (Rattus norvegicus) (P33535 whole entry): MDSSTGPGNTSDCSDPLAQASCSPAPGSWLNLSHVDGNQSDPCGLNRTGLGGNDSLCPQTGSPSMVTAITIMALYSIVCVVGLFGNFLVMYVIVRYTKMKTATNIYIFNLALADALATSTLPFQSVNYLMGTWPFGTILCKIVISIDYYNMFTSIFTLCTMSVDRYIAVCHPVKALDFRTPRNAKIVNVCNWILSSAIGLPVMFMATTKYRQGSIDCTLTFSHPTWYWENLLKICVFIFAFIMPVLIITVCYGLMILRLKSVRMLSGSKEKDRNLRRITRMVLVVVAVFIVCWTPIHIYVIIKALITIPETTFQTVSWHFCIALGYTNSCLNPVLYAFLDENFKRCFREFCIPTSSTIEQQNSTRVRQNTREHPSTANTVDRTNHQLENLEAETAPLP

Mus musculus [27] = organism: Mus musculus; assay: Compound was evaluated for the inhibition of [3H]naloxone binding to mouse brain homogenate at 1 nM in the presence of 100 mM sodium; ED50 = 1500-2000 nM; type: functional
[28] = target: Mu-type opioid receptor (Mus musculus) (UniProt P42866); assay: as §2; type: tissue-based
[29] = target: Mu-type opioid receptor (Mus musculus) (UniProt P42866); assay: Compound was evaluated for the inhibition of [3H]naloxone binding to mouse brain homogenate at 1 nM in the absence of sodium; ED50 = 7-10 nM; type: tissue-based
[30] = target: Mu-type opioid receptor (Mus musculus) (UniProt P42866); assay: Ratio between the ED50 values in presence and absence of sodium; value ranges from 7-10
[31] = Cercopithecidae, in Primates, read-out: ED50

CCCN1CCC(C(=O)CC)(c2cccc(O)c2)CC1
Ratio (Mus musculus [1]): 4 | ED50 (Mus musculus [2]): 16 | ED50 (Mus musculus [3]): 800 nM | ED50 (Mus musculus [4]): 200 nM

CCCCCCCCCCN1CCC(C(=O)CC)(c2cccc(O)c2)CC1
Ratio (Mus musculus [5]): 1.2 | ED50 [6]: 600 nM | ED50 [7]: 500 nM | ED50 (Mus musculus [8]): inactive

CC[C@]12CCN(C)C(Cc3ccc(O)cc31)C2
Antagonist potency (Monkey [9]): inactive | PDC (Monkey [10]): low physical dependence capacity | PDC (Monkey [11]): low physical dependence capacity

CN1CC[C@]23c4c5ccc(O)c4O[C@H]2[C@@H](O)C=C[C@H]3[C@H]1C5 [MORPHINE]
PDC (Monkey [12]): Active | Antagonist potency (Monkey [13]): inactive | ED50 (Monkey [14]; [31]): 1.2 mg/kg

CN1CC[C@]2(C)CC1Cc1ccc(O)cc12 (stereo in doubt; form 3) [listing 1 of 2 here]
PDC (Monkey [10]): no physical dependence capacity

CC1C2Cc3ccc(O)cc3[C@@H]1CCN2C (stereo in doubt; form 1)
ED50 (Monkey [14]): 1.1 mg/kg

CCCCCCN1CCC(C(=O)CC)(c2cccc(O)c2)CC1
ED50 (Mus musculus [15]): 40 nM | ED50 (Mus musculus [2]): 7.5 | Ratio (Mus musculus [16]): 2 | ED50 (Mus musculus [4]): 20 nM

CN1CC[C@]2(C)CC1Cc1ccc(O)cc12 (stereo in doubt; form 1) [listing 1 of 2 here]
Antagonist potency (Monkey [9]): inactive | PDC (Monkey [17]): no physical dependence capacity

CC1C2Cc3ccc(O)cc3[C@]1(C)CCN2C (stereo in doubt; form 2)
ED50 (Monkey [14]): 1.2 mg/kg

CC1C2Cc3ccc(O)cc3[C@@H]1CCN2C (stereo in doubt; form 2)
ED50 (Monkey [14]): 4.3 mg/kg

CCCCCCCN1CCC(C(=O)CC)(c2cccc(O)c2)CC1
ED50 [18]: 20 nM | Ratio (Mus musculus [19]): 2 | ED50 [20]: 40 nM | ED50 (Mus musculus [21]): 9000 nM

CCC[C@]12CCN(C)C(Cc3ccc(O)cc31)[C@@H]2C
Antagonist potency (Monkey [9]): inactive | PDC (Monkey [12]): high physical dependence capacity | PDC (Monkey [10]): high physical dependence capacity

CCCCN1CCC(C(=O)CC)(c2cccc(O)c2)CC1
Ratio (Mus musculus [22]): 12 | ED50 (Mus musculus [2]): 4.6 | ED50 (Mus musculus [23]): 600 nM | ED50 (Mus musculus [4]): 50 nM

CC1C2Cc3ccc(O)cc3[C@]1(C)CCN2C (stereo in doubt; form 1)
ED50 (Monkey [14]): 0.1 mg/kg

CN1CC[C@]2(C)CC1Cc1ccc(O)cc12 (stereo in doubt; form 3) [listing 2 of 2 here]
ED50 (Monkey [14]): 1.8 mg/kg

CCCCCN1CCC(C(=O)CC)(c2cccc(O)c2)CC1
ED50 (Mus musculus [15]): 30 nM | ED50 (Mus musculus [2]): 0.78 | Ratio (Mus musculus [16]): 3.8 | ED50 (Mus musculus [4]): 8 nM

COc1ccc2c3c1O[C@H]1[C@@H](O)C=C[C@H]4[C@@H](C2)N(C)CC[C@@]341 [CODEINE]
Antagonist potency (Monkey [9]): inactive | PDC (Monkey [24]): Partially active | ED50 (Monkey [14]; [31]): 7.5 mg/kg

CCCCCCCCCN1CCC(C(=O)CC)(c2cccc(O)c2)CC1
ED50 [25]: 700 nM | ED50 [7]: 700 nM | ED50 (Mus musculus [8]): inactive | Ratio (Mus musculus [16]): 1

CN1CC[C@]2(C)CC1Cc1ccc(O)cc12 (stereo in doubt; form 1) [listing 2 of 2 here]
ED50 (Monkey [14]): 22.9 mg/kg

CCC(=O)C1(c2cccc(O)c2)CCN(CC)CC1
Ratio [26]: 3.8 | ED50 (Mus musculus [27]): 1500 nM | ED50 (Mus musculus [2]): 67.2 | ED50 (Mus musculus [4]): 400 nM

CCCCCCCCN1CCC(C(=O)CC)(c2cccc(O)c2)CC1
ED50 [25]: 200 nM | ED50 [7]: 200 nM | Ratio (Mus musculus [16]): 1 | ED50 (Mus musculus [21]): 26500 nM

CC[C@H]1C2Cc3ccc(O)cc3[C@]1(CC)CCN2C
Antagonist potency (Monkey [9]): inactive | PDC (Monkey [24]): intermed physical dependence capacity | PDC (Monkey [10]): intermed physical dependence capacity

C[C@H]1C2Cc3ccc(O)cc3[C@]1(C)CCN2C
Antagonist potency (Monkey [9]): inactive | ED50 (Monkey [14]; Cercopithecidae): inactive | ED50 (Monkey [14]; [31]): 0.6 mg/kg | PDC (Monkey [10]): no physical dependence capacity

CN1CC[C@]2(C)CC1Cc1ccc(O)cc12 (stereo in doubt; form 2)
ED50 (Monkey [14]): 3.2 mg/kg

CCC(=O)C1(c2cccc(O)c2)CCN(C)CC1 [KETOBEMIDONE]
ED50 [28]: 70 nM | ED50 [29]: 7 nM | ED50 (Mus musculus [2]): 2.1 | Ratio [30]: 7

CN1CC[C@@H]2CC1Cc1ccc(O)cc12
ED50 (Monkey [14]; [31]): 4.5 mg/kg
